Measured values reported in paper PMC9964117, “Inhibitors against Two PDZ Domains of MDA-9 Suppressed Migration of Breast Cancer Cells” (International Journal of Molecular Sciences, 2023).
Positions count from the first letter of the chain named. Read-outs that look alike come from different tables or passages of the source.

What was measured:
MDA-9 PDZ1 domain [1] = molecular target: T1, MDA-9 PDZ1 domain (Homo sapiens, UniProt O00560); set-up: method as in PMID 28011764; conditions: read-out: Affinity for MDA-9 PDZ1 domain; cited from earlier work
T1 construct: the N-terminal (1–109aa), PDZ1 (110–193aa), PDZ2 (194–274aa); made in house
T1 sequence (O00560 110-193): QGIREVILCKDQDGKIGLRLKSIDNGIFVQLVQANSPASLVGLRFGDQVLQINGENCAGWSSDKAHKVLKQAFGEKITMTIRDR

MDA-9 PDZ2 domain [2] = molecular target: T2, MDA-9 PDZ2 domain (Homo sapiens, UniProt O00560); conditions: cited from earlier work
T2 construct: PDZ1 (110–193aa), PDZ2 (194–274aa), and the C-terminal (275–298aa); made in house
T2 sequence (O00560 194-274): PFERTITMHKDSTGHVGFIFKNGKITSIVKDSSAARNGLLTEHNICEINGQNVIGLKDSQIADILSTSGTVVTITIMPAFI

brain-tumor-bearing mice = system: brain-tumor-bearing mice; set-up: method as in PMID 28011764; conditions: cited from earlier work
[3] = system: prostate cancer or neuroblastoma; set-up: method as in PMID 31406249, PMID 31345950; conditions: cited from earlier work
glioma cells = system: glioma cells; set-up: method as in PMID 28011764; conditions: cited from earlier work
[4] = molecular target: T3, MTSL-labeled C118/C166S mutant of MDA-9 PDZ1 domain (Homo sapiens, UniProt O00560, C166S); assay: NMR CSP titration against MTSL-labeled mutant; conditions: dose-dependent CSP, read-out: Binding affinity to MTSL-labeled C118/C166S mutant of PDZ1
T3 construct: the N-terminal (1–109aa), PDZ1 (110–193aa), PDZ2 (194–274aa); made in house
T3 sequence (O00560 110-193 C166S): T1 sequence (O00560 110-193) with C57S
Procedure: (§1) The ^15N-labelled PDZ1 and PDZ2 domains of MDA-9 were concentrated in the HEPES buffer (20 mM HEPES, 100 mM NaCl, 1 mM EDTA, 1 mM DTT, pH 7.0) to 0.05 mmol/L. The screening fragment compounds were then titrated to these ^15N-labeled MDA-9 PDZ1 or PDZ2 domain, respectively. Each HSQC profile was collected (at molar ratios of 0.0, 2.0, 4.0, 8.0, 16.0, and 32.0 at 25 °C) using an Agilent 700 MHz spectrometer. NMR spectra were analyzed using Sparky. The chemical shift changes (Δδ), relative to the free form of the PDZ1 or PDZ2 domain, were calculated as follows:(1) Δδ=(∆δH^1)^2+(0.2ΔδN^15)^2 where ∆δH^1 and ΔδN^15 denote the chemical shift changes of ^1H and ^15N, respectively.
(§2) According to this equation, the binding constants can be best fitted with a binding mode of 1:1: Δδobs=Δδmax([P]t+[L]t+Kd)−([P]t+[L]t+Kd)^2−4[P]t[L]t/2[P]t where [P]t and [L]t represent the concentrations of the protein and ligand, respectively. Δδobs represents the observed chemical shift changes, relative to the free-state protein.
(§3) The ^15N-labeled PDZ1 C118/C166S mutant and the PDZ2 C239S/D256C mutant were expressed by the method described above. After the dilution of the protein solution to 0.5 mg/mL with a 1-fold excess of Tris(2-carboxyethyl) phosphine (TCEP), the solution was incubated for 2 h at room temperature. […] WATERGATE spectra with T2 delays of 0.04 and 0.8 s were recorded. […]

MDA-MB-231 cells [5] = assay: CCK8 cell viability assay; format: cell-based; conditions: 48 h treatment
Procedure: The MDA-MB-231 cells were obtained by a gift. CCK8 assay was used to assess the effects of PI1A or PI2A on the viability of MDA-MB-231 cells. Cells were placed in 96-well plates and treated with different concentrations of DMSO, PI1A, or PI2A for 48 h. Then, 10 μL of CCK8 solution was added to the wells. The 96-well plates were incubated in a CO2 incubator at 37 °C for another 1 h. OD values were measured at 450 nm using a CLARIOstar (BMG LABTECH) plate reader.

MDA-9 PDZ1 domain [6] = molecular target: T1, MDA-9 PDZ1 domain; assay: Competitive fluorescence polarization with FITC-peptide; conditions: 80 μM PDZ1, 500 nM FITC-peptide; read-out: Binding affinity to PDZ1 from competitive FP
Procedure: (§4) For competitive FP experiments with the FITC-peptide, the PDZ1 domain concentration was set at 80 μM and the PDZ2 domain concentration at 250 μM. After that, each aliquot of the 200 μL sample contained 500 nM of the FITC-peptide, 80 μM of the PDZ1 or 250 μM of the PDZ2 domain, as well as different concentrations of PI1A or PI2A. A concentration range of 0–200 μM was administered for PI1A while a concentration range of 0–600 μM was administered for PI2A. Samples were repeated 3 times for each experimental group. The dissociation constants for the interactions between ligands and proteins were derived from the complete competitive FP equation proposed by Gerhard Wagner et al. (Biochemistry 2004). […]

MDA-MB-231 cells [7] = assay: Wound-healing assay; format: cell-based; conditions: 100 μM each compound, 0 and 24 h, relative to DMSO
Procedure: MDA-MB-231 cells were spread in 6-well plate culture dishes, where sh-MDA-9 cells were used as a positive control. DMSO (control), PI1A 100 μM, PI2A 100 μM, and both PI1A and PI2A 100 μM were added to the MDA-MB-231 cells, respectively. On newly grown monolayer cells, […] of the tip was used to line the central area of cell growth. Next, excess cells were washed away with PBS buffer. The cells were then cultured for the experimentally-determined period of time (0 h or 24 h). Lastly, the cell culture plates were removed separately and the peripheral cells were observed under a microscope to determine whether they had migrated to the scratched area.

MDA-9 PDZ2 domain [8] = molecular target: T2, MDA-9 PDZ2 domain; assay: NMR chemical shift perturbation titration (1H-15N HSQC); format: binding
Procedure: (§5) NMR fragment-based screening was performed at 25 °C using an Agilent 700 MHZ spectrometer equipped with a 96-well autosampler (Agilent Technologies, Santa Clara, CA, USA). ^1H-^15N HSQC spectra were acquired from the ^15N-labeled MDA-9 PDZ1 and PDZ2 domains (0.05 mM). A fragment library of 890 compounds (Chembridge, SanDiego, CA, USA) and an approved drug library of 540 compounds (TargetMol, Boston, MA, USA) were pooled into cocktails, respectively, and each cocktail contained 10 compounds at 0.2 mM [39, 40]. The ^1H-^15N HSQC spectra were measured on an Agilent 700 MHz spectrometer at ligand/protein molar ratios ranging from 0.0 to 4.0.
as §1, with “^15N, respectively. […]” for “^15N, respectively.”

MDA-9 PDZ1 domain [9] = molecular target: T1, MDA-9 PDZ1 domain; assay: as above; conditions: 25 °C, pH 7.0, read-out: Binding affinity (Kd) to MDA-9 PDZ1 domain from dose-dependent CSPs
Procedure: as §5
as §1, with “^15N, respectively. […]” for “^15N, respectively.”

[10] = molecular target: T4, MTSL-labeled C239S/D256C mutant of MDA-9 PDZ2 domain (Homo sapiens, UniProt O00560, C239S/D256C); assay: NMR CSP titration against MTSL-labeled mutant; format: binding; conditions: dose-dependent CSP
T4 construct: PDZ1 (110–193aa), PDZ2 (194–274aa), and the C-terminal (275–298aa); made in house
T4 sequence (O00560 194-274 C239S/D256C): T2 sequence (O00560 194-274) with C46S, D63C
Procedure: as §1, §2, §3

MDA-9 PDZ2 domain [11] = molecular target: T2, MDA-9 PDZ2 domain; assay: Competitive fluorescence polarization with FITC-peptide; conditions: 250 μM PDZ2, 500 nM FITC-peptide; read-out: Binding affinity to PDZ2 from competitive FP
Procedure: as §4

[12] = molecular target: T5, G210A mutant of MDA-9 PDZ2 domain (Homo sapiens, UniProt O00560, G210A); assay: NMR CSP titration against mutant; format: binding; conditions: relative to wild type
T5 construct: PDZ1 (110–193aa), PDZ2 (194–274aa), and the C-terminal (275–298aa); made in house
T5 sequence (O00560 194-274 G210A): T2 sequence (O00560 194-274) with G17A
Procedure: as §1, §2

[13] = molecular target: T6, A255V mutant of MDA-9 PDZ2 domain (Homo sapiens, UniProt O00560, A255V); assay: NMR CSP titration against mutant; format: binding
T6 construct: PDZ1 (110–193aa), PDZ2 (194–274aa), and the C-terminal (275–298aa); made in house
T6 sequence (O00560 194-274 A255V): T2 sequence (O00560 194-274) with A62V
Procedure: as §1, §2

[14] = molecular target: T7, V209A mutant of MDA-9 PDZ2 domain (Homo sapiens, UniProt O00560, V209A); assay: NMR CSP titration against mutant; format: binding; conditions: relative to wild type
T7 construct: PDZ1 (110–193aa), PDZ2 (194–274aa), and the C-terminal (275–298aa); made in house
T7 sequence (O00560 194-274 V209A): T2 sequence (O00560 194-274) with V16A
Procedure: as §1, §2

[15] = molecular target: T8, V209I mutant of MDA-9 PDZ2 domain (Homo sapiens, UniProt O00560, V209I); assay: NMR CSP titration against mutant; format: binding
T8 construct: PDZ1 (110–193aa), PDZ2 (194–274aa), and the C-terminal (275–298aa); made in house
T8 sequence (O00560 194-274 V209I): T2 sequence (O00560 194-274) with V16I
Procedure: as §1, §2

[16] = molecular target: T9, H208A mutant of MDA-9 PDZ2 domain (Homo sapiens, UniProt O00560, H208A); assay: NMR CSP titration against mutant; format: binding
T9 construct: PDZ1 (110–193aa), PDZ2 (194–274aa), and the C-terminal (275–298aa); made in house
T9 sequence (O00560 194-274 H208A): T2 sequence (O00560 194-274) with H15A
Procedure: as §1, §2

Cc1cc(NC(=O)c2nc3nc4c(c(=O)n3[nH]2)CCC4)c(C)cc1NC(=O)CCc1nnc(-c2ccccc2)o1 [PDZ1i]
Kd (MDA-9 PDZ1 domain [1]): 21 µM
Binding to MDA-9 PDZ2 domain (in words) (MDA-9 PDZ2 domain [2]): did not bind significantly
Survival rate in brain-tumor-bearing mice (brain-tumor-bearing mice): improved survival rate
In vivo activity against prostate cancer or neuroblastoma [3]: exhibited in vivo activity
Invasion of glioma cells (glioma cells): inhibited the invasion

Cc1cc(Nc2ccccc2C(=O)O)ccc1Cl [PI1A]
Kd [4]: 250 µM
Toxicity / viability of MDA-MB-231 cells (CCK8) (MDA-MB-231 cells [5]): not toxic
Kd (MDA-9 PDZ1 domain [6]): 170 µM
Migration of MDA-MB-231 cells (wound closure) (MDA-MB-231 cells [7]): suppressed the migration
Binding to MDA-9 PDZ2 domain (in words) (MDA-9 PDZ2 domain [8]): did not bind
Kd (MDA-9 PDZ1 domain [9]): 110 µM

O=C(O)c1cc(-c2ccc(F)cc2)n[nH]1 [PI2A]
Toxicity / viability of MDA-MB-231 cells (CCK8) (MDA-MB-231 cells [5]): not toxic
Effect of MTSL labeling of C239S/D256C PDZ2 mutant on inhibitor binding affinity (in words) [10]: did not disrupt
Kd (MDA-9 PDZ2 domain [11]): 510 µM
Migration of MDA-MB-231 cells (wound closure) (MDA-MB-231 cells [7]): suppressed the migration
Kd (MDA-9 PDZ2 domain [8]; 25 °C, pH 7.0, read-out: Binding affinity (Kd) to MDA-9 PDZ2 domain by NMR titration): 500 µM
Kd (MDA-9 PDZ1 domain [9]): > 1000 µM
Binding affinity to G210A mutant of PDZ2 (in words) [12]: reduced binding affinities
Kd [13]: > 5000 µM
Binding affinity to V209A mutant of PDZ2 (in words) [14]: reduced binding affinities
Kd [15]: > 5000 µM
Binding to H208A mutant of PDZ2 (in words) [16]: incapable of binding
